Assay results as given in ChEMBL document CHEMBL1201862, “PubChem BioAssay data set” (2004).
Activity calls are given as the source filed them.

How the values were obtained:
Galanin receptor type 3 = molecular target: T1, Galanin receptor type 3 (Homo sapiens, UniProt O60755); assay: Fluorescence-based cell-based primary high throughput dose response assay to identify antagonists of the Galanin Receptor 3 (GalR3).; format: functional
T1 sequence (O60755 whole entry): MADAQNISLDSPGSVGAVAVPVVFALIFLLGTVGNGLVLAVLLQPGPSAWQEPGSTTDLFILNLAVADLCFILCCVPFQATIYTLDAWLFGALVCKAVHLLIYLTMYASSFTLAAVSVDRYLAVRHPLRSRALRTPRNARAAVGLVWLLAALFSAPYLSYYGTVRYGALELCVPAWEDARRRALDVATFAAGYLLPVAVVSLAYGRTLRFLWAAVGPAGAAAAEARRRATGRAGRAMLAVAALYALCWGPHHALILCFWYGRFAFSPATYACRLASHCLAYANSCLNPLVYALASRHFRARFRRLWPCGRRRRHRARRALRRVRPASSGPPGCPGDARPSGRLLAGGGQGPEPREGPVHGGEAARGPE

cells = format: functional, cell-based; settings: HEK-CNG
[1] = molecular target: T2, Replicative DNA helicase DnaB (Mycobacterium tuberculosis, UniProt P9WMR3); assay: DnaB intein splicing inhibitors, dose response, biochemical, cell-free fluorescence (AID 449749); format: functional
T2 sequence (P9WMR3 whole entry): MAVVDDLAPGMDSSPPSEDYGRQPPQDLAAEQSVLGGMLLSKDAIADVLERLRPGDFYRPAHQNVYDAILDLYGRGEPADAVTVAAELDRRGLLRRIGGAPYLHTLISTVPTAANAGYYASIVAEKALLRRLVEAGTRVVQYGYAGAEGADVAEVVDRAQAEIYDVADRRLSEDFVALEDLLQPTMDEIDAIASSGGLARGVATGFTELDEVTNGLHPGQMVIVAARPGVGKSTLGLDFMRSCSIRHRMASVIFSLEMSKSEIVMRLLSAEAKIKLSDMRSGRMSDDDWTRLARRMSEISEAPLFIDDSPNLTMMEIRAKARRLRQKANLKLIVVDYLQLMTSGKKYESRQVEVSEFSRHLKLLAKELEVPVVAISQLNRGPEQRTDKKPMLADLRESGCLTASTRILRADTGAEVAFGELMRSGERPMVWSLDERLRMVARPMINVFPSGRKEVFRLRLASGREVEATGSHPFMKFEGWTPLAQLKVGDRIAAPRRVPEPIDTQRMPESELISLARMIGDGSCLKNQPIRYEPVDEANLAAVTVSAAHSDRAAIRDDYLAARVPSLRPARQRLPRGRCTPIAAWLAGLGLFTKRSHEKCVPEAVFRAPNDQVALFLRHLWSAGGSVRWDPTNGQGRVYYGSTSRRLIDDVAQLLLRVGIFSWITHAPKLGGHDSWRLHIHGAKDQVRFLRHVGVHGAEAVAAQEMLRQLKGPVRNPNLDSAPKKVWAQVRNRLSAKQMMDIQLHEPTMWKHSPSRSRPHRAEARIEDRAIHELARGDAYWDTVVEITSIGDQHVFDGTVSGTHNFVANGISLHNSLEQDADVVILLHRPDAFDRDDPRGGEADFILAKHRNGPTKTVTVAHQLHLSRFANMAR

Protein RecA = molecular target: T3, Protein RecA (Mycobacterium tuberculosis, UniProt P9WHJ3); assay: Fluorescence Cell-Free Homogeneous Dose Retest to Identify Inhibitors of RecA-Intein Splicing Activity. [Related pubchem assays (depositor defined):AID2097, AID2223, AID489010, AID492950]; format: functional
T3 sequence (P9WHJ3 whole entry): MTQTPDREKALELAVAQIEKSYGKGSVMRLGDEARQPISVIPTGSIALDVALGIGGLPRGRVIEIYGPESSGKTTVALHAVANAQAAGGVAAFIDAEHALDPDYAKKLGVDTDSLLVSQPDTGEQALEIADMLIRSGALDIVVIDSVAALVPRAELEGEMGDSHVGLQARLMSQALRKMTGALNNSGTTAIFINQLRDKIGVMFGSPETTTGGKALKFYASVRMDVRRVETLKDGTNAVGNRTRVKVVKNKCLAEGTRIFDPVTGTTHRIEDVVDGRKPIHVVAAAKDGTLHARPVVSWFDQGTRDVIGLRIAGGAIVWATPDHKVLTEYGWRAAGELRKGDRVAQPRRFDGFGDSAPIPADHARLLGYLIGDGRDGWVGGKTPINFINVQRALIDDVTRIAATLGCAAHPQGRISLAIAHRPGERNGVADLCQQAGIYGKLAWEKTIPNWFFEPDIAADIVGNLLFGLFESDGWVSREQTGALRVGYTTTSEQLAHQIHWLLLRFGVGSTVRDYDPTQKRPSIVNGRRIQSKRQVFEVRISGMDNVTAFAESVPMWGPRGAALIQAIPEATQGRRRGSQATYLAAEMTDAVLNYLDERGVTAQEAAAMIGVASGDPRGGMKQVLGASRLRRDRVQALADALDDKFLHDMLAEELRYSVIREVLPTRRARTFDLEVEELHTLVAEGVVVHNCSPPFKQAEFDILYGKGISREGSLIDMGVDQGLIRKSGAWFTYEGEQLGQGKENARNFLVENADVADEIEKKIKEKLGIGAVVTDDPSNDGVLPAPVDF

[2] = Luminescence Cell-Based Dose Retest to Confirm Inhibitors of Cancer Stem Cells. [Related pubchem assays (depositor defined):AID2717, AID2721]; format: functional; settings: Homo sapiens
[3] = cytotoxicity in HMLE control line with eGFP shRNA, dose response, counter-screen for HMLE_sh_ECad selective toxicity project, cell-based, HMLE_sh_eGFP, luminescence (AID 463074); format: functional, Homo sapiens;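 note: HMLE human mammary epithelial cells expressing control shRNA against eGFP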
[4] = molecular target: Photoreceptor-specific nuclear receptor (Homo sapiens, UniProt Q9Y5X4); format: functional, cell-based;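 note: CHO-S cells with Gal4-NCOR and VP16-NR2E3 two-hybrid luciferase reporter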
Sequence of Photoreceptor-specific nuclear receptor (Q9Y5X4 whole entry, the tested form may be a part): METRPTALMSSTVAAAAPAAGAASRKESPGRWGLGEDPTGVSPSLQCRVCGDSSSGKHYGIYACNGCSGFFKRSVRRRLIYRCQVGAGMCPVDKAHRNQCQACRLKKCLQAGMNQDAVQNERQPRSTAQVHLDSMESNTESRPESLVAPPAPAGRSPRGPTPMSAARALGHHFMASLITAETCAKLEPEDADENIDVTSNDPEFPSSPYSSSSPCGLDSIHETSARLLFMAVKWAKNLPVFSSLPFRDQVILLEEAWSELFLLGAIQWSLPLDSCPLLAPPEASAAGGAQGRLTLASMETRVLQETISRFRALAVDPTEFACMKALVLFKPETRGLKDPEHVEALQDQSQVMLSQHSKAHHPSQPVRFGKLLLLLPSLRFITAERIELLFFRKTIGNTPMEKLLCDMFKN

Fatty acid synthase [5] = molecular target: T4, Fatty acid synthase (Homo sapiens, UniProt P49327); assay: FAS thioesterase domain inhibitors, dose response, biochemical, endpoint fluorescence intensity, uHTS hits (AID 624327); format: functional;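 note: fluorescence from hydrolysis of an O-methyl fluorescein acyl ester substrate by the enzyme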
T4 sequence (P49327 whole entry, the tested form may be a part): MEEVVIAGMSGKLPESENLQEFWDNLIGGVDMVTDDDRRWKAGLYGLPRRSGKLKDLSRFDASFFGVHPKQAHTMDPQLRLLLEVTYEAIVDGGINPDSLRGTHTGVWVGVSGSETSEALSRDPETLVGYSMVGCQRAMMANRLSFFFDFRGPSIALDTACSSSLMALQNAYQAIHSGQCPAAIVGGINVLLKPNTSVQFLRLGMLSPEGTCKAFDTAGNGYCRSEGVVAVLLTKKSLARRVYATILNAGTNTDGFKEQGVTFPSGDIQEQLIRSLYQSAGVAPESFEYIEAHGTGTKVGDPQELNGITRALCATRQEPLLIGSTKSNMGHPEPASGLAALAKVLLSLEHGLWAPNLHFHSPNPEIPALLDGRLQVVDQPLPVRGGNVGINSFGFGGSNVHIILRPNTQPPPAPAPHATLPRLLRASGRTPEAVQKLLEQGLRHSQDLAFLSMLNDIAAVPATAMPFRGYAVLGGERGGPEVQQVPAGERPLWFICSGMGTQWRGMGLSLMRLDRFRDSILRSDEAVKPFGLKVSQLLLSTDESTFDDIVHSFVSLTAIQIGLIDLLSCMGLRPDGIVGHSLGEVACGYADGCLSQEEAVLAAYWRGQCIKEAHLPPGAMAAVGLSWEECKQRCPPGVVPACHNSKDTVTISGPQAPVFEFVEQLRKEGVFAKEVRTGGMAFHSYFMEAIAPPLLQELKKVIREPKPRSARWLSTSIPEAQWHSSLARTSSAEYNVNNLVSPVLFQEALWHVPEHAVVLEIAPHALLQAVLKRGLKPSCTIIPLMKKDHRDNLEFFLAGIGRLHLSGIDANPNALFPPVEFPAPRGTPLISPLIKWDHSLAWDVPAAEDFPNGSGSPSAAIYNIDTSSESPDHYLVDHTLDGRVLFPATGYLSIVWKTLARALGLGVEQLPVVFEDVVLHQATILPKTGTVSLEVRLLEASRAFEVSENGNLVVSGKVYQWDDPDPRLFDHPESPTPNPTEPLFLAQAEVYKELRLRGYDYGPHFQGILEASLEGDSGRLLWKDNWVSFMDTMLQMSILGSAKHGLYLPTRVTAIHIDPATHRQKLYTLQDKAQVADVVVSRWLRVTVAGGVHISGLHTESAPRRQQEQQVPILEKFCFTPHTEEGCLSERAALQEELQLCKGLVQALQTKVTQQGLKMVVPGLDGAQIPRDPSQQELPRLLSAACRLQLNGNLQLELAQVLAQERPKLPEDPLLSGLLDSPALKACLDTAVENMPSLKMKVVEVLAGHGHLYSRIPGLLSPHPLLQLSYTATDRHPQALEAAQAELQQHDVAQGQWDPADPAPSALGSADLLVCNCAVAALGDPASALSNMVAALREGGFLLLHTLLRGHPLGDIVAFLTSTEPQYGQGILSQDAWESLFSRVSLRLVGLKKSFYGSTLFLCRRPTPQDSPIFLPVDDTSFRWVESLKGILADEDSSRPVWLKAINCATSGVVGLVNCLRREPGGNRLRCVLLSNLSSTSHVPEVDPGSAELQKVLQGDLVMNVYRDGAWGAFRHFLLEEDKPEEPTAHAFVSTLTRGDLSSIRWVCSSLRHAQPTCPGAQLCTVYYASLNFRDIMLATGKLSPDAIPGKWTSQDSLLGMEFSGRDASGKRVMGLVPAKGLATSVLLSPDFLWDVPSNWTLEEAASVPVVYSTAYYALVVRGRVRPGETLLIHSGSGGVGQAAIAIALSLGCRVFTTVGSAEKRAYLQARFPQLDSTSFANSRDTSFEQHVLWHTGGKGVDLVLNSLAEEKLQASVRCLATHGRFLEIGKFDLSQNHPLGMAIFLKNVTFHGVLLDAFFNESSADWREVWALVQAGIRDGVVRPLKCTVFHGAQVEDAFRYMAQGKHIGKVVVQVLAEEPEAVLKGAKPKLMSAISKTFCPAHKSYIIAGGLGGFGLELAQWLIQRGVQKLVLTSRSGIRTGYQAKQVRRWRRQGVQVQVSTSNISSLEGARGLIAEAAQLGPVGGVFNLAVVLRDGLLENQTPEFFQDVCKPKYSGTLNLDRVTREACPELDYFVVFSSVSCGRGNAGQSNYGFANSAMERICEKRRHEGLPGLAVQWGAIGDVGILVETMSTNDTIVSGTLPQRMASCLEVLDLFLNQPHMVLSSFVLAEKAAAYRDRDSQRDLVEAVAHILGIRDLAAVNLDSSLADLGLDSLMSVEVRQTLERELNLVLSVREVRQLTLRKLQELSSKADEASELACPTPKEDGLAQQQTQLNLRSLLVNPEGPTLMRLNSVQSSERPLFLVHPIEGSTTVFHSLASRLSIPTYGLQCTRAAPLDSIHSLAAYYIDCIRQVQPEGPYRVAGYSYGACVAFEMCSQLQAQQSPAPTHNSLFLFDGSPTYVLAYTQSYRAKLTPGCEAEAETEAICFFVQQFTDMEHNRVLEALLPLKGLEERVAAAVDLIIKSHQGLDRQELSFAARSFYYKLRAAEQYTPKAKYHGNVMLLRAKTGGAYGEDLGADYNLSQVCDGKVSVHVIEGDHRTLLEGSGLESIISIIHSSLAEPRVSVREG

Fatty acid synthase [6] = molecular target: T4, Fatty acid synthase; assay: FAS thioesterase domain inhibitors, dose response, biochemical, kinetic fluorescence intensity (AID 624326); format: functional;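 note: rate of fluorescence rise from hydrolysis of a fluorogenic O-methyl fluorescein ester substrate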
[7] = molecular target: T5, Corticotropin-releasing factor receptor 2/Corticotropin-releasing factor-binding protein (Homo sapiens, UniProt P24387+Q13324); assay: Dose Response confirmation of uHTS hits for small molecule antagonists of the CRF-binding protein and CRF-R2 receptor complex.; format: functional; settings: read-out: IC50_Mean
T5 sequence (Q13324 whole entry): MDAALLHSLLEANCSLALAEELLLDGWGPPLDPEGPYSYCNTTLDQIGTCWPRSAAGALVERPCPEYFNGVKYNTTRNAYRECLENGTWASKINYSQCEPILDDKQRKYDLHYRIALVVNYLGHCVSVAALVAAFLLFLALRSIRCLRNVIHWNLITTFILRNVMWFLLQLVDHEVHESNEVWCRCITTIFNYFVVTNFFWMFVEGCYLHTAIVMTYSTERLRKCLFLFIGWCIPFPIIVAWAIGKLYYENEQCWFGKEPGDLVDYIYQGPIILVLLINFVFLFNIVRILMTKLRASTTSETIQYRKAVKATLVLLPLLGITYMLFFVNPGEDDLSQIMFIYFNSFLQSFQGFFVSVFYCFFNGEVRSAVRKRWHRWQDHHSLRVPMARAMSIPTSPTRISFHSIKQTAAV
T5 sequence (P24387 whole entry): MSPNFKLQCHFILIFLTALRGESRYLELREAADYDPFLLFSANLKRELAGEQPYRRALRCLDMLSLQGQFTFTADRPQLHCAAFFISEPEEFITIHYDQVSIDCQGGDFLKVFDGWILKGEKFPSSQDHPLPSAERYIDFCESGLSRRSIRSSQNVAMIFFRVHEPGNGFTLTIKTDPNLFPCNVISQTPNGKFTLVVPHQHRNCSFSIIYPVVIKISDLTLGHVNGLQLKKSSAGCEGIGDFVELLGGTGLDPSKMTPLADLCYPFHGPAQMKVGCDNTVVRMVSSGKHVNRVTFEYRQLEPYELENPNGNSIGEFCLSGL

[8] = molecular target: T5, Corticotropin-releasing factor receptor 2/Corticotropin-releasing factor-binding protein; assay: activators of CRF receptor 2 with binding protein – uHTS hits, confirmation (AID 602473); format: functional; settings: read-out: EC50_Mean
[9] = CRF-BP/CRF-R2 complex antagonists, dose response, cell-based, uHTS hits, 384-well (AID 651639); format: functional, Homo sapiens; settings: read-out: IC50_Mean
INS1 = assay: beta cell apoptosis inhibitors, cytokine rescue, dose response, luminescence, retest (AID 449756); format: functional, cell-based; settings: Rattus norvegicus;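 note: cell death triggered by IL-1 beta plus TNF-alpha plus IFN-gamma mixture; protective hits raise ATP signal compared with cytokine alone wells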
[10] = human group III sPLA2 inhibitors, dose response, biochemical, QFRET, IC50 (AID 743457);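 note: green fluorescence rise as the enzyme cleaves BODIPY PC-A2 in liposomes; potency for inhibition of the enzyme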

With COCCn1c(SCCCC(=O)c2ccc(Br)cc2)nnc1-c1ccncc1 the IC50 (Galanin receptor type 3) was 5.94 µM (active) and the EC50 (cells) was > 29.9 µM (inactive).

For Cc1onc(-c2ccccc2)c1-c1nc2ccccc2c(=O)o1, the AC50 [1] was 1.31 µM (active), the EC50 (Protein RecA) was 1.11 µM (active) and the IC50 (Galanin receptor type 3) was > 29.9 µM (inactive). The EC50 (cells) was > 29.9 µM (inactive).

For O=C(COC(=O)c1cc([N+](=O)[O-])ccc1N1CCOCC1)Nc1ccc(Cl)cn1, the AC50 [2] was 4.89 µM (active), the AC50 [3] was 25.6 µM (active) and the IC50 [4] was 1.91 µM (active). For the same molecule, the IC50 (Fatty acid synthase [5]) was 5.2 µM (active) and the IC50 (Fatty acid synthase [6]) was 6.06 µM (active).

For O=C(O)c1ccc(-n2ncc3c2/C(=C/c2cccc([N+](=O)[O-])c2)CC3)cc1, the IC50 [7] was 4.34 µM (active), the EC50 [8] was > 53 µM (inactive) and the IC50 [9] was 9.76 µM (active).

In the case of Cc1ccc(C(=O)NC(=S)/C=C2\N(C)c3ccccc3C2(C)C)cc1, the AC50 (INS1) is reported as 2.33 µM (active) and the IC50 [10] is reported as > 122 µM (inactive).

With CCOC(=O)CCN(c1ccccc1)S(=O)(=O)c1ccc(-c2ccc(O)nn2)s1 the IC50 (Galanin receptor type 3) was 4.41 µM (active) and the EC50 (cells) was > 29.9 µM (inactive).
